Assay results: the supplement of paper PMC11061612

Assays:
[1] = test system: FU-OV-1 (Ovarian Carcinoma); assay: Bliss excess, mean over the matrix (fraction); higher = more synergy
How it was run: (§1)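 Bliss excess equals the observed combination effect minus the expected value EA + EB − EA·EB, where EA and EB are the effects of each agent alone. Combination Emax is the second-highest inhibition within the matrix. Inhibition was scaled from CellTiter-Glo 2.0 luminescence, with 0 set by vehicle wells and 1 by blank wells, after 72 hours of two-drug dosing of cells plated in 1536-well plates.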

[2] = test system: TC-YIK (Other Solid Carcinomas); assay: as above
How it was run: as §1

[3] = test system: D-283MED (Other Solid Carcinomas); assay: combination Emax (second highest fraction inhibited in the dose matrix, 72 h); higher = more inhibition; extreme values may be limits of the assay
How it was run: as §1

[4] = test system: FU-OV-1 (Ovarian Carcinoma); assay: as above
How it was run: as §1

[5] = test system: GDM-1 (Acute Myeloid Leukemia); assay: as above
How it was run: as §1

[6] = test system: HCC1143 (Breast Carcinoma); assay: as above
How it was run: as §1

[7] = test system: HCC-827 (Lung Adenocarcinoma); assay: as above
How it was run: as §1

[8] = test system: P31-FUJ (Acute Myeloid Leukemia); assay: as above
How it was run: as §1

[9] = test system: EFM-192A (Breast Carcinoma); assay: as above
How it was run: as §1

[10] = test system: SK-LMS-1 (Other Solid Carcinomas); assay: as above
How it was run: as §1

[11] = test system: U-118-MG (Low Grade Glioma); assay: as above
How it was run: as §1

[12] = test system: RCC10RGB (Kidney Carcinoma); assay: as above
How it was run: as §1

[13] = test system: HOP-92 (Non-Small Cell Lung Carcinoma); assay: as above
How it was run: as §1

[14] = test system: KG-1 (Acute Myeloid Leukemia); assay: as above
How it was run: as §1

[15] = test system: TC-YIK (Other Solid Carcinomas); assay: as above
How it was run: as §1

[16] = test system: NCI-H1688 (Small Cell Lung Carcinoma); assay: as above
How it was run: as §1

| SMILES | Bliss excess [1] | Bliss excess [2] | combination Emax [3] | combination Emax [4] | combination Emax [5] | combination Emax [6] | combination Emax [7] | combination Emax [8] | combination Emax [9] | combination Emax [10] | combination Emax [11] | combination Emax [12] | combination Emax [13] | combination Emax [14] | combination Emax [15] | combination Emax [16] |
| --- | --- | --- | --- | --- | --- | --- | --- | --- | --- | --- | --- | --- | --- | --- | --- | --- |
| COc1nnc2ccc(N3CCC(c4ccc(OCCN5CCN(C)C(=O)[C@H]5C)cc4)CC3)nn12 [AZD5153] + Cc1c2c(nn1C)CSCc1cc(n(C)n1)CSc1cc(c3ccccc3c1)OCCCc1c(C(=O)O)n(C)c3c-2c(Cl)ccc13 [AZD5991] (first compound max 1 µM, 7x7, partner max 1 µM) | 0.0022 | -0.0146 | 0.979 | 0.835 | 1 | 0.565 | 0.366 | 0.995 | 0.665 | 0.5 | 0.352 | 0.531 | 0.386 | 1 | 0.98 | 0.647 |
| COc1nnc2ccc(N3CCC(c4ccc(OCCN5CCN(C)C(=O)[C@H]5C)cc4)CC3)nn12 [AZD5153] + CCN(CCO)CCCOc1ccc2c(Nc3cc(CC(=O)Nc4cccc(F)c4)[nH]n3)ncnc2c1 [AZD2811] (first compound max 1 µM, 7x7, partner max 1 µM) | -0.0571 | -0.106 | 0.9 | 0.691 | 0.952 | 0.431 | 0.43 | 0.982 | 0.361 | 0.548 | 0.362 | 0.565 | 0.402 | 0.789 | 0.915 | 0.389 |
| COc1cc2ncnc(Nc3ccc(F)c(Cl)c3)c2cc1OCCCN1CCOCC1 [Gefitinib] + CC(C)n1c(=O)n(C)c2cnc3cc(F)c(-c4ccc(OCCCN5CCCCC5)nc4)cc3c21 [AZD1390] (first compound max 10 µM, 7x7, partner max 0.3 µM) | -0.0717 | -0.046 | 0.425 | 0.296 | 0.131 | 0.253 | 0.766 | 0.455 | 0.262 | 0.12 | 0.0987 | 0.563 | 0.229 | 0.182 | 0.188 | 0.233 |
| Cn1cnc2c(F)c(Nc3ccc(Br)cc3Cl)c(C(=O)NOCCO)cc21 [Selumetinib] + CCN(CCO)CCCOc1ccc2c(Nc3cc(CC(=O)Nc4cccc(F)c4)[nH]n3)ncnc2c1 [AZD2811] (first compound max 10 µM, 7x7, partner max 1 µM) | 0.0176 | -0.0495 | 0.476 | 0.405 | 0.861 | 0.409 | 0.277 | 0.951 | 0.167 | 0.334 | 0.287 | 0.505 | 0.495 | 0.392 | 0.874 | 0.169 |
| CN(C)CCCOc1ccc(-c2ccc3ncc4c(c3c2)n(C2CCOCC2)c(=O)n4C)cn1 [AZD0156] + O=C(c1cc(Cc2n[nH]c(=O)c3ccccc23)ccc1F)N1CCN(C(=O)C2CC2)CC1 [Olaparib] (first compound max 3 µM, partner max 3 µM) | -0.0526 | 0.102 | 0.557 | 0.211 | 0.533 | 0.203 | 0.325 | 0.368 | 0.248 | 0.392 | 0.304 | 0.229 | 0.256 | 0.336 | 0.379 | 0.206 |
| Cc1nc(-c2cn3c(n2)-c2ccc(-c4cnn(C(C)(C)C(N)=O)c4)cc2OCC3)n(C(C)C)n1 [Taselisib] + O=C(Nc1ccc2[nH]nc(-c3ccncc3)c2c1)[C@@H]1CCN(CC(=O)N2CCN(c3ccc(-c4ncccn4)cc3)CC2)C1 [SCH772984] (first compound max 10 µM, 7x7, partner max 5 µM) | -0.0373 | 0.0859 | 0.775 | 0.727 |  |  |  | 0.948 |  | 0.924 |  |  |  |  | 0.661 |  |
| CC1(C)CCC(CN2CCN(c3ccc(C(=O)NS(=O)(=O)c4ccc(NCC5CCOCC5)c([N+](=O)[O-])c4)c(Oc4cnc5[nH]ccc5c4)c3)CC2)=C(c2ccc(Cl)cc2)C1 [Venetoclax] + COc1cc(Nc2ncc3c(n2)-c2ccc(Cl)cc2C(c2c(F)cccc2OC)=NC3)ccc1C(=O)O [Alisertib] (first compound max 1 µM, 7x7, partner max 10 µM) | -0.0614 |  | 0.85 | 0.665 | 0.98 | 0.469 | 0.457 | 0.906 | 0.167 | 0.579 | 0.527 | 0.568 | 0.57 | 1 |  | 0.398 |
| CN(CCO)CC[C@H](CSc1ccccc1)Nc1ccc(S(=O)(=O)NC(=O)c2ccc(N3CCC([C@@H](O)c4ccccc4-c4ccc(Cl)cc4)CC3)cc2)cc1S(=O)(=O)C(F)(F)F [AZD4320] + C[C@@H](Nc1cc(F)cc(F)c1)c1cc(C(=O)N(C)C)cc2c(=O)cc(N3CCOCC3)oc12 [AZD8186] (first compound max 1 µM, 7x7, partner max 3 µM) | -0.0284 |  | 0.928 | 0.558 | 1 | 0.418 | 0.393 | 0.543 | 0.345 | 0.94 | 0.812 | 0.507 | 0.967 | 0.953 |  | 0.484 |
